Results taken from the supplement of paper PMC10331698.
± gives the standard deviation of the averaged measurements.

Legend:
Assay in all cases: level (log10 ratio to DMSO vehicle control); higher = higher biomarker level / cell amount than vehicle control
Settings in all cases: in DMSO
[1] = compound: C=C(C)C(=O)OCC(F)(F)C(F)(F)C(F)(F)F [2,2,3,3,4,4,4-Heptafluorobutyl methacrylate]
Procedure: (§1)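 BioMAP Diversity Plus panel of 12 human primary cell co-culture systems (3C, 4H, LPS, SAg, BT, BF4T, BE3C, CASM3C, HDF3CGF, KF3CT, MyoF, Mphg). Compounds were added 1 h before stimulation and left for 24 h (MyoF 48 h; BT 72 h for soluble read-outs or 6 d for IgG). Biomarkers were read by ELISA, cytotoxicity by SRB, PBMC viability and proliferation by Alamar Blue. Each well value was divided by the mean of 8 DMSO control wells on the same plate and log10 transformed; duplicate blinded samples were tested at 4 concentrations.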

[2] = compound: Cc1ccc(S(=O)(=O)OCC(F)(F)C(F)(F)C(F)(F)C(F)(F)C(F)(F)C(F)F)cc1 [1H,1H,7H-Perfluoroheptyl 4-methylbenzenesulfonate]
Procedure: as §1

[3] = compound: FC(F)(F)C(F)(F)C(F)(F)C(F)(F)CCI [1H,1H,2H,2H-Perfluorohexyl iodide]
Procedure: as §1

[4] = compound: O=C(Cl)C(F)(F)C(F)(F)C(F)(F)C(=O)Cl [Hexafluoroglutaryl chloride]
Procedure: as §1

[5] = compound: OCC(F)(F)C(F)(F)C(F)(F)C(F)(F)C(F)(F)C(F)(F)C(F)(F)C(F)(F)CO [1H,1H,10H,10H-Perfluorodecane-1,10-diol]
Procedure: as §1

[6] = compound: OCC(F)(F)C(F)(F)C(F)(F)C(F)(F)C(F)(F)C(F)(F)F [6:1 Fluorotelomer alcohol]
Procedure: as §1

Test System	level (log10) ([1]; 6700 nM)	level (log10) ([1]; 20000 nM)	level (log10) ([1]; 60000 nM)	level (log10) ([2]; 6700 nM)	level (log10) ([2]; 20000 nM)	level (log10) ([2]; 60000 nM)	level (log10) ([3]; 6700 nM)	level (log10) ([3]; 20000 nM)	level (log10) ([3]; 60000 nM)	level (log10) ([4]; 6700 nM)	level (log10) ([4]; 20000 nM)	level (log10) ([4]; 60000 nM)	level (log10) ([5]; 6700 nM)	level (log10) ([5]; 20000 nM)	level (log10) ([5]; 60000 nM)	level (log10) ([6]; 6700 nM)	level (log10) ([6]; 20000 nM)	level (log10) ([6]; 60000 nM)
LPS:CD141/Thrombomodulin	0.001 ± 0.05	-0.0015 ± 0.005	-0.0185 ± 0.019	-0.0115 ± 0.016	-0.011 ± 0.0085	-0.007 ± 0.023	0.0185 ± 0.023	0.011 ± 0.038	-0.005 ± 0.027	-0.0035 ± 0.066	-0.017 ± 0.028	-0.017 ± 0.021	-0.02 ± 0.03	0.007 ± 0.044	-0.047	-0.0225 ± 0.03	-0.021 ± 0.051	0.002 ± 0.0057
BF4T:Keratin 8/18	-0.013 ± 0.035	-0.029 ± 0.014	-0.0245 ± 0.039	0.0085 ± 0.039	0.005 ± 0.028	-0.0285 ± 0.028	0.0015 ± 0.022	-0.0045 ± 0.005	0.003 ± 0.033	-0.0245 ± 0.053	-0.018 ± 0.03	-0.0345 ± 0.035	0.005 ± 0.028	0.027 ± 0.018	-0.024	-0.0085 ± 0.0092	-0.0045 ± 0.023	0.03 ± 0.05
BF4T:CD54/ICAM-1	-0.0025 ± 0.022	-0.0085 ± 0.021	-0.005 ± 0.023	-0.0055 ± 0.018	-0.01 ± 0.0028	-0.021 ± 0.0085	-0.0025 ± 0.0035	-0.0095 ± 0.0021	-0.002 ± 0.0057	0.0065 ± 0.0064	-0.004	0.016 ± 0.017	-0.031 ± 0.02	-0.091 ± 0.0071	-0.138	-0.0065 ± 0.023	-0.01 ± 0.016	-0.005 ± 0.018
SAg:CD40	-0.038 ± 0.02	-0.032 ± 0.011	-0.023 ± 0.025	-0.0125 ± 0.0078	0.001 ± 0.031	-0.0135 ± 0.011	0.019 ± 0.013	0.012 ± 0.0014	-0.0185 ± 0.018	0.0105 ± 0.042	0.0085 ± 0.0021	-0.0085 ± 0.043	-0.0395 ± 0.0078	-0.0625 ± 0.028	-0.081	-0.02 ± 0.023	-0.0075 ± 0.0021	-0.005 ± 0.033
SAg:PBMC Cytotoxicity	-0.0105 ± 0.037	0.015 ± 0.011	0.0075 ± 0.044	0.0275 ± 0.0092	0.0285 ± 0.0092	0.017 ± 0.02	0.006 ± 0.03	-0.0025 ± 0.03	-0.093 ± 0.088	0.0075 ± 0.0078	-0.022 ± 0.018	0.0185 ± 0.021	0.009	0.0155 ± 0.036	-0.155	-0.014 ± 0.013	-0.014 ± 0.0099	-0.0295 ± 0.073
SAg:CCL2/MCP-1	0.0075 ± 0.012	-0.011 ± 0.0028	0.017 ± 0.011	-0.024 ± 0.016	-0.027 ± 0.011	-0.021 ± 0.023	-0.0075 ± 0.015	0.004 ± 0.0014	-0.015 ± 0.018	-0.02 ± 0.017	-0.004 ± 0.041	0.017 ± 0.051	-0.0145 ± 0.0092	-0.02 ± 0.0042	-0.008	-0.002 ± 0.0057	-0.0085 ± 0.005	0.0175 ± 0.025
4H:CD106/VCAM-1	0.012 ± 0.04	0.019 ± 0.028	0.02 ± 0.025	-0.0065 ± 0.0078	-0.032 ± 0.013	-0.0295 ± 0.011	0.0045 ± 0.0021	-0.0125 ± 0.0092	-0.0525 ± 0.011	0.0015 ± 0.0092	-0.005 ± 0.021	0.001 ± 0.011	-0.0445 ± 0.011	-0.049 ± 0.03	-0.166	0.0035 ± 0.033	-0.0045 ± 0.049	0.0195 ± 0.0078
SAg:CD38	-0.0015 ± 0.03	0.007 ± 0.048	0.013 ± 0.068	0.005 ± 0.0057	-0.0075 ± 0.012	-0.0075 ± 0.012	0.009 ± 0.021	-0.007 ± 0.0071	-0.005 ± 0.031	-0.021 ± 0.025	-0.031 ± 0.034	-0.031 ± 0.055	-0.0275 ± 0.00071	-0.04 ± 0.0099	-0.027	-0.0215 ± 0.088	-0.0085 ± 0.12	-0.018 ± 0.17
LPS:SRB	-0.012 ± 0.0014	-0.0075 ± 0.0021	0.002 ± 0.0042	0.006 ± 0.0099	-0.0075 ± 0.00071	-0.031 ± 0.0042	0.019 ± 0.023	0.0125 ± 0.035	0.007 ± 0.024	-0.0075 ± 0.0064	0.0015 ± 0.012	0.003 ± 0.0014	0.0005 ± 0.016	-0.012 ± 0.017	-0.042	-0.005 ± 0.0014	-0.0105 ± 0.005	-0.0005 ± 0.0092
BT:Secreted IgG	0.0145 ± 0.036	0.029 ± 0.018	0.024 ± 0.03	0.006 ± 0.018	-0.019 ± 0.035	-0.22 ± 0.18	-0.012 ± 0.016	-0.016 ± 0.0071	-0.002 ± 0.014	0.012 ± 0.024	0.0205 ± 0.012	0.0115 ± 0.0035	-0.0135 ± 0.005	-0.0415 ± 0.011	-0.82	0.004 ± 0.042	-0.0005 ± 0.04	-0.161 ± 0.14
SAg:CXCL9/MIG	-0.004 ± 0.03	0.002 ± 0.011	0.009 ± 0.013	0.001 ± 0.0042	-0.028	-0.0075 ± 0.0064	-0.0015 ± 0.005	-0.006 ± 0.0085	0.009 ± 0.0028	0 ± 0.016	-0.0005 ± 0.011	0.013 ± 0.017	-0.022 ± 0.0042	0.0005 ± 0.019	-0.021	-0.0025 ± 0.021	-0.013 ± 0.018	-0.0055 ± 0.0092
BF4T:MMP-9	-0.015 ± 0.025	-0.0265 ± 0.0078	0.0195 ± 0.049	0.0045 ± 0.012	-0.008 ± 0.011	-0.0435 ± 0.023	0.0085 ± 0.022	0.01 ± 0.047	0.02 ± 0.052	-0.0075 ± 0.025	-0.0125 ± 0.025	0.005 ± 0.0071	-0.0185 ± 0.015	-0.063 ± 0.0028	-0.135	-0.023 ± 0.016	-0.004 ± 0.011	0.014 ± 0.0085
BF4T:PAI-I	-0.0035 ± 0.00071	0.0015 ± 0.0064	0.007	-0.0075 ± 0.025	-0.0295 ± 0.011	-0.0315 ± 0.0035	0.0075 ± 0.0078	0.008 ± 0.018	0.01 ± 0.038	-0.01 ± 0.014	-0.002 ± 0.0042	-0.0005 ± 0.005	-0.021 ± 0.021	-0.111 ± 0.0021	-0.156	-0.001 ± 0.0028	-0.012	0.002 ± 0.021
BF4T:IL-1alpha	-0.005 ± 0.014	-0.009 ± 0.0014	0.002 ± 0.025	-0.008 ± 0.0085	0.022 ± 0.018	0.04 ± 0.034	0.001 ± 0.0071	0.0085 ± 0.0092	0.019 ± 0.024	-0.014 ± 0.04	-0.015 ± 0.018	0.0015 ± 0.0064	0.0005 ± 0.0021	-0.025 ± 0.023	-0.035	-0.0005 ± 0.005	0.0035 ± 0.0021	0.0005 ± 0.011
